Experimental data from patent US20260258050A1, “IMMUNOMODULATOR” (HITGEN INC., priority 2023, published 2026).

Experiments:
Human IL-17A = target: T1, Human IL-17A (Homo sapiens, UniProt Q16552); assay: Inhibition of human IL-17A protein-induced GROα/CXCL1 production in HT-29 cells; type: cell-based; set-up: purchased R&D 317-ILB; host or cells: added exogenously to HT-29 cells; details: 30 ng/mL human IL-17A protein, 48 h, GROα in supernatant by ELISA kit, read-out: Inhibitory IC50 of compounds on HT-29 cell GROα/CXCL1
T1 sequence (Q16552 20-155 limits assumed): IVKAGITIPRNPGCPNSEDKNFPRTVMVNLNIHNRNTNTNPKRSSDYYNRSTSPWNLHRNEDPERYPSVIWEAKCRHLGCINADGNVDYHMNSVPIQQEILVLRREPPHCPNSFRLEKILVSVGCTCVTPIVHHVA
Outline: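 Compound dilutions were preincubated 1 h at 37 °C with 30 ng/mL human IL-17A, then added to HT-29 cells (5×10^4/well) for 48 h at 37 °C. GROα in supernatant quantified by ELISA; IC50 for inhibition of its production. Positive control: IL-17A antibody at […].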

Human IL-17AF = target: T2, Human IL-17AF (Homo sapiens, UniProt Q16552+Q96PD4); assay: IL-17AF ELISA (competitive ELISA, IL-17AF/IL-17Ra receptor-ligand binding); details: human IL-17AF coated plate, human IL-17Ra, read-out: IC50, inhibitory activity of compounds on human IL-17AF
T2 construct: purchased Sino Biological Inc. CT047-H08H
T2 sequence (Q16552 24-155): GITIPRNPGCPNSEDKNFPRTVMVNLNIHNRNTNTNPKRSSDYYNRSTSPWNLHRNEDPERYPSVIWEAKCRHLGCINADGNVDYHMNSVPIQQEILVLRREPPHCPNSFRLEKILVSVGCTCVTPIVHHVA
T2 sequence (Q96PD4 31-163): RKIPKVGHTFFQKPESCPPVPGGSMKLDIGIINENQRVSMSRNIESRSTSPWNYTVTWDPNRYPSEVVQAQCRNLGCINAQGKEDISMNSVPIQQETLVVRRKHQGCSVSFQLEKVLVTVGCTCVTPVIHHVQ
Outline: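 Plates coated with 0.625 μg/ml human IL-17AF in PBS pH 7.4 (37 °C, 30 min) and milk-blocked. Compounds pre-incubated with coated IL-17AF for 10 min at 25 °C, then IL-17Ra added (as 100 nM solution) for 30 min. Bound receptor detected by anti-Fc HRP/TMB at 450 nm; IC50 from variable-slope normalized fit versus DMSO control and blank.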

Row | IC50 (Human IL-17A) | IC50 (Human IL-17AF) | SMILES
1 | ≤ 100 nM | 100 to 500 nM | Cc1[nH]nc2c1-c1cc(F)c(NC(=O)[C@@H](NC(=O)/C(F)=C\C3CC3)C(C3CC3)C3CC3)cc1COCC2 [compound 230]
2 | ≤ 100 nM | ≤ 100 nM | Cc1[nH]nc2c1-c1cnc(NC(=O)[C@@H](NC(=O)c3ccnn3C(C)C)C(C3CC3)C3CC3)cc1CN(C1CC1)C(=O)C2 [compound 191]
3 | ≤ 100 nM | 100 to 500 nM | Cc1[nH]nc2c1-c1cc(F)c(NC(=O)[C@@H](NC(=O)/C(F)=C\C(C)C)C(C3CC3)C3CC3)cc1COCC2 [compound 229]
4 | ≤ 100 nM | 100 to 500 nM | Cc1[nH]nc2c1-c1cc(F)c(NC(=O)[C@@H](NC(=O)c3ccnn3CCC(F)(F)F)C(C3CC3)C3CC3)cc1COCC2 [compound 88]
5 | ≤ 100 nM | 100 to 500 nM | Cc1[nH]nc2c1-c1cc(F)c(NC(=O)[C@@H](NC(=O)c3ccnn3C(C)C)C(C3CC3)C3CC3)cc1CN(C(C)C(F)(F)F)C(=O)C2 (single isomer, unassigned) [compound 186a]
6 | 100 to 500 nM | 100 to 500 nM | Cc1[nH]nc2c1-c1cnc(NC(=O)[C@@H](NC(=O)c3ccnn3C(C)C)C(C3CC3)C3CC3)cc1CN(C(C)C)CC2 [compound 200]
7 | ≤ 100 nM | 100 to 500 nM | Cc1[nH]nc2c1-c1cnc(NC(=O)[C@@H](NC(=O)/C(F)=C\C(C)C)C(C3CC3)C3CC3)cc1COCC2 [compound 238]
8 | 100 to 500 nM | ≤ 100 nM | CSCCn1nccc1C(=O)N[C@H](C(=O)Nc1cc2c(cc1F)-c1c(n[nH]c1C)CCOC2)C(C1CC1)C1CC1 [compound 61]
9 | ≤ 100 nM | ≤ 100 nM | Cc1[nH]nc2c1-c1ccc(NC(=O)[C@@H](NC(=O)c3ccnn3C(C)C)C(C3CC3)C3CC3)cc1CN(C)C(=O)C2 [compound 22]
10 | 100 to 500 nM | 100 to 500 nM | CCn1nccc1C(=O)N[C@H](C(=O)Nc1cc2c(cc1F)-c1c(n[nH]c1C)CCOC2)C(C1CC1)C1CC1 [compound 16]
11 | 100 to 500 nM | ≤ 100 nM | Cc1[nH]nc2c1-c1cc(F)c(NC(=O)[C@@H](NC(=O)c3ccnn3C(C)CF)C(C3CC3)C3CC3)cc1COCC2 (single isomer, unassigned) [compound 42b]
12 | 100 to 500 nM | 100 to 500 nM | Cc1[nH]nc2c1-c1cc(F)c(NC(=O)[C@@H](NC(=O)c3ccnn3C)C(C3CC3)C3CC3)cc1COCC2 [compound 17]
13 | 100 to 500 nM | ≤ 100 nM | Cc1[nH]nc2c1-c1cc(F)c(NC(=O)[C@@H](NC(=O)c3ccnn3CCC(O)C(F)(F)F)C(C3CC3)C3CC3)cc1COCC2 (stereo partly shown) [compound 81]
14 | 100 to 500 nM | 100 to 500 nM | [2H]C([2H])([2H])C([2H])([2H])n1nccc1C(=O)N[C@H](C(=O)Nc1cc2c(cc1F)-c1c(n[nH]c1C)CCOC2)C(C1CC1)C1CC1 [compound 90]
15 | ≤ 100 nM | 100 to 500 nM | Cc1[nH]nc2c1-c1cc(F)c(NC(=O)[C@@H](NC(=O)c3ccnn3C(C)C)C(C3CC3)C3CC3)cc1CN(C1CCOCC1)CC2 [compound 174]
16 | ≤ 100 nM | ≤ 100 nM | Cc1[nH]nc2c1-c1cc(F)c(NC(=O)[C@@H](NC(=O)c3ccnn3C(C)C)C(C3CC3)C3CC3)cc1CN(C1CC(F)(F)C1)CC2 [compound 176]
17 | ≤ 100 nM | ≤ 100 nM | Cc1[nH]nc2c1-c1cnc(NC(=O)[C@@H](NC(=O)c3conc3C3CC3)C(C3CC3)C3CC3)cc1CN(C1CC1)CC2 [compound 215]
18 | ≤ 100 nM | ≤ 100 nM | Cc1[nH]nc2c1-c1cc(F)c(NC(=O)[C@@H](NC(=O)c3ccnn3CCCF)C(C3CC3)C3CC3)cc1COCC2 [compound 86]
19 | 100 to 500 nM | 100 to 500 nM | Cc1[nH]nc2c1-c1cc(F)c(NC(=O)[C@@H](NC(=O)c3ccnn3CC3CC3)C(C3CC3)C3CC3)cc1COCC2 [compound 59]
20 | 100 to 500 nM | ≤ 100 nM | COCCCn1nccc1C(=O)N[C@H](C(=O)Nc1cc2c(cc1F)-c1c(n[nH]c1C)CCOC2)C(C1CC1)C1CC1 [compound 58]
21 | ≤ 100 nM | 100 to 500 nM | Cc1[nH]nc2c1-c1cnc(NC(=O)[C@@H](NC(=O)c3ccnn3CCCF)C(C3CC3)C3CC3)cc1COCC2 [compound 124]
22 | ≤ 100 nM | 100 to 500 nM | Cc1[nH]nc2c1-c1cnc(NC(=O)[C@@H](NC(=O)/C(F)=C\C3CC3)C(C3CC3)C3CC3)cc1COCC2 [compound 239]

Row | IC50 (Human IL-17A) | IC50 (Human IL-17AF) | SMILES
23 | 100 to 500 nM | 100 to 500 nM | Cc1[nH]nc2c1-c1cc(F)c(NC(=O)[C@@H](NC(=O)c3ccnn3CCOC(C)C)C(C3CC3)C3CC3)cc1COCC2 [compound 98]
24 | 100 to 500 nM | 100 to 500 nM | COCC(COC)n1nccc1C(=O)N[C@H](C(=O)Nc1cc2c(cc1F)-c1c(n[nH]c1C)CCOC2)C(C1CC1)C1CC1 [compound 99]
25 | ≤ 100 nM | 100 to 500 nM | Cc1[nH]nc2c1-c1cnc(NC(=O)[C@@H](NC(=O)c3ccnn3C(C)C)C(C3CC3)C3CC3)cc1CN(C1CCC1)CC2 [compound 201]
26 | ≤ 100 nM | 100 to 500 nM | Cc1[nH]nc2c1-c1cnc(NC(=O)[C@@H](NC(=O)c3ccnn3C(C)C)C(C3CC3)C3CC3)cc1CN(CC(F)F)CC2 [compound 202]
27 | ≤ 100 nM | ≤ 100 nM | Cc1[nH]nc2c1-c1cnc(NC(=O)[C@@H](NC(=O)c3ccnn3C(C)C)C(C3CC3)C3CC3)cc1CN(CC(F)F)C(=O)C2 [compound 192]
28 | 100 to 500 nM | 100 to 500 nM | Cc1[nH]nc2c1-c1cnc(NC(=O)[C@@H](NC(=O)c3ccnn3C(C)C3CC3)C(C3CC3)C3CC3)cc1COCC2 (single isomer, unassigned) [compound 188a]
29 | ≤ 100 nM | 100 to 500 nM | Cc1[nH]nc2c1-c1cc(F)c(NC(=O)[C@@H](NC(=O)c3ccnn3CCOC3CC3)C(C3CC3)C3CC3)cc1COCC2 [compound 102]
30 | ≤ 100 nM | ≤ 100 nM | Cc1[nH]nc2c1-c1cc(F)c(NC(=O)[C@@H](NC(=O)c3ccnn3C(C)CF)C(C3CC3)C3CC3)cc1COCC2 (single isomer, unassigned) [compound 42a]
31 | 100 to 500 nM | ≤ 100 nM | CCOCCn1nccc1C(=O)N[C@H](C(=O)Nc1cc2c(cc1F)-c1c(n[nH]c1C)CCOC2)C(C1CC1)C1CC1 [compound 100]
32 | 100 to 500 nM | 100 to 500 nM | Cc1[nH]nc2c1-c1cnc(NC(=O)[C@@H](NC(=O)c3conc3C(C)C)C(C3CC3)C3CC3)cc1COCC2 [compound 234]
33 | 100 to 500 nM | 100 to 500 nM | Cc1[nH]nc2c1-c1cnc(NC(=O)[C@@H](NC(=O)c3ccnn3C(C)C)C(C3CC3)C3CC3)cc1CN(Cc1ccccc1)C(=O)C2 [compound 182]
34 | 100 to 500 nM | ≤ 100 nM | CCCn1nccc1C(=O)N[C@H](C(=O)Nc1cc2c(cc1F)-c1c(n[nH]c1C)CCOC2)C(C1CC1)C1CC1 [compound 62]
35 | 100 to 500 nM | ≤ 100 nM | Cc1[nH]nc2c1-c1cc(F)c(NC(=O)[C@@H](NC(=O)c3ccnn3CC3(C#N)CC3)C(C3CC3)C3CC3)cc1COCC2 [compound 114]
36 | 100 to 500 nM | 100 to 500 nM | CC(=O)N1CCc2n[nH]c(C)c2-c2cnc(NC(=O)[C@@H](NC(=O)c3ccnn3C(C)C)C(C3CC3)C3CC3)cc2C1 [compound 196]
37 | ≤ 100 nM | ≤ 100 nM | Cc1[nH]nc2c1-c1cc(F)c(NC(=O)[C@@H](NC(=O)c3ccnn3CCCF)C(C3CC3)C3CC3)cc1CN(C1CC1)CC2 [compound 218]
38 | ≤ 100 nM | 100 to 500 nM | Cc1[nH]nc2c1-c1cnc(NC(=O)[C@@H](NC(=O)c3ccnn3C(C)CF)C(C3CC3)C3CC3)cc1COCC2 (single isomer, unassigned) [compound 189a]
39 | 100 to 500 nM | 100 to 500 nM | Cc1[nH]nc2c1-c1cc(F)c(NC(=O)[C@@H](NC(=O)c3ccnn3C(C)C)C(C3CC3)C3CC3)cc1CN(CC1CC1)CC2 [compound 166]
40 | 100 to 500 nM | 100 to 500 nM | Cc1[nH]nc2c1-c1cc(F)c(NC(=O)[C@@H](NC(=O)c3ccnn3C(C)C)C3CCCCC3)cc1COCC2 [compound 48]
41 | ≤ 100 nM | ≤ 100 nM | Cc1[nH]nc2c1-c1cnc(NC(=O)[C@@H](NC(=O)c3ccnn3C(C)C)C(C3CC3)C3CC3)cc1CN(CC(C)(F)F)CC2 [compound 199]
42 | ≤ 100 nM | 100 to 500 nM | [2H]C([2H])([2H])C([2H])(n1nccc1C(=O)N[C@H](C(=O)Nc1ccc2c(c1)COCCc1n[nH]c(C)c1-2)C(C1CC1)C1CC1)C([2H])([2H])[2H] [compound 52]
43 | ≤ 100 nM | ≤ 100 nM | Cc1[nH]nc2c1-c1cc(F)c(NC(=O)[C@@H](NC(=O)c3ccnn3C(C)C)C(C3CC3)C3CC3)cc1CN(C1CCC1)C(=O)C2 [compound 170]
44 | 100 to 500 nM | 100 to 500 nM | Cc1[nH]nc2c1-c1cc(F)c(NC(=O)[C@@H](NC(=O)c3ccnn3CC3COC3)C(C3CC3)C3CC3)cc1COCC2 [compound 115]
